# Source: US20220088103A1, “PEANUT STEM AND LEAF EXTRACT AND PREPARATION METHOD AND USE THEREOF” (INSTITUTE OF FOOD SCIENCE AND TECHNOLOGY, CHINESE ACADEMY …, priority 2019, published 2022)
# Test system: sleep of mice
# Experiment: Effect on 24-hour sleep of mice (EEG and electromyograph recording)
# Type: in vivo, Male Bal b/c mice
# Settings: standard substances dosed according to their identified contents in the extract; intragastric, D1 to D14; FIG. 3
# Description: The BAL b/c mice is used as a model in the present invention, and the electrophysiological technology is adopted, wherein electrodes are implanted in the brain of the mice, and the brain wave changes of mice after drug administration is real time 24-hour monitored for 14 days, thereby determining that the functional active substances in the peanut stem and leaf extract provided by the present invention have a significant sleep promoting function.
# Experiment of the effect of the peanut stem and leaf extract prepared in Example 1 on sleep of mice
# The peanut stem and leaf extract prepared according to the method of Example 1 was used as an experimental drug, and the standard drugs were administered to the mice according to the identified contents of the substances such as naringenin-4,7′-dimethyl ether.
# The experiment was divided into a control group, extract groups (three groups of low, medium and high doses), a positive control group and a functional factor group (four functional active substances). Male Bal b/c mice were used, 6 mice for each group.
# The mice were anesthetized at abdominal cavity with chloral hydrate (4%) at 0.10 mL/10 g. After the pain reflex disappeared, the mice were fixed on a mouse brain stereotactic adapter, and the hair on the head of the mice was cut off and 75% alcohol was used to disinfect the skin, the skin was cut along the midline of the skull, and the subcutaneous tissue was separated to fully expose the skull. […] The electroencephalo-graph (EEG) electrodes were fixed on the skull with tissue glue and dental cement successively, and the EEG electrode was connected to a screw (fixed in the hole drilled on the skull) to touch the cerebral dura mater by a silver wire to record cortical EEG activity. The two silver wires connected to the myoelectric electrodes were inserted into the muscles on both sides of the neck of the mouse to record the myoelectric activity. The electrode base was then fixed to the skull with tissue glue and dental cement. Mice were injected with penicillin after surgery (measuring 80,000 units/day for three consecutive days). The mice were raised separately in a shielding box with constant temperature, constant humidity, sound insulation and electrostatic shielding function during the recovery period after surgery. The cables for recording EEG and myoelectricity were connected to the electrodes on the head of the mouse on the second day after surgery, and the mice were allowed to adapt for 7 days. […] The EEG and electromyograph of mice that recovered and adapted to the experimental environment began to be recorded from 8:00 in the morning for 24 hours, and this day was recorded as D0. […] The EEG and electromyograph were recorded on the D7 and D14, and the brain tissue was taken after gavage at 8:00 in the morning on D15.
row,Structure (SMILES),sleep time of mice (24-hour sleep)
1,C=CC(C)(O)CCC=C(C)C (stereo not shown) [linalool],significantly improve
2,COc1cc(/C=C/C(=O)O)ccc1O [ferulic acid],significantly improve
3,"COc1ccc(C2CC(=O)c3c(O)cc(OC)cc3O2)cc1 (stereo not shown) [naringenin-4,7′-dimethyl ether]",significantly improve
4,COc1cc(O)ccc1C(=O)/C=C/c1ccc(O)cc1 [2′-O-methylisoliquiritigenin],significantly improve
